# Laboratory results taken from patent US12448425B2, “Therapeutic peptides” (Board of Regents, The University of Texas System, priority 2019, dated 2025).
# Assays:
# Bev-resistant RF24 cells = assay: Cell death in bevacizumab-resistant RF24 cells (SYTOX-green flow cytometry); assay type: cell-based
# Method: FIGS. 4A-D: BIDEN-AP-based agents inhibit microtubule formation and sensitizes resistant endothelial cells to anti-VEGF antibody. (FIG. 4A, FIG. 4B) Microtubule formation in RF24 cells treated with EFNB2-Fc (2 nM) or BIDEN-AP (15 μM) compared to untreated controls (CTL). Five images per well were taken at ×100 magnification. […] Representative plots from flow cytometry analysis with SYTOX-green are shown. […] Data are presented as mean±SD (n=6). *p<0.05, **p<0.01.
# Given the important role of endothelium in adaptive changes with anti-angiogenic therapy (Bergers et al., 2008), we further tested the effects of BIDEN-AP in overcoming resistance to anti-VEGF therapy in RF24 cells. To do this, we first established a bevacizumab (Bev)-resistant RF24 cell line selected though continuous Bev treatment at low dose ([…]) for 2 weeks. The Bev-resistant RF24 cells were maintained at a Bev concentration of […]. Using flow cytometry with SYTOX-green staining, we quantified the live (SYTOX-negative) vs. dead (SYTOX-positive) populations after treatment with BIDEN-AP or CCPM-BIDEN-AP.
# [1] = Particle size by transmission electron microscopy; assay type: physicochemical
# Method: CCPM-BIDEN-AP conjugation. CCPM with amine functionalized surface was synthesized according to reported procedures (Koolpe et al., 2005). To introduce a maleimide group to the CCPM, an aliquot of N-(γ-maleimidobutyryloxy)-succinimide ester) (GMBS) in DMF ([…], 0.16 mmol) was added into the CCPM ([…], 2.6 nmol nanoparticles) in 1.2 mL of phosphate-buffered saline solution (PBS, pH 8). The mixture was stirred for 3 h at 37° C. The product was purified using a PD-10 column to remove unreacted GMBS. To introduce a sulfhydryl group to BIDEN-AP, the amino acid cysteine was conjugated to the N-terminal amine of BIDEN-AP. The resulting sulfhydryl-containing Cys-BIDEN-AP was mixed with 2 mL of a solution of CCPM-maleimide (0.16 mmol equivalent maleimide) in PBS with a 2:1 molar ratio of Cys-BIDEN-AP to maleimide groups (CCPM). […] The unreacted Cys-BIDEN-AP was quantified on an Agilent 1100 Series LC/MSD-TOF instrument equipped with a Vydac C18 column. The molar ratio of BIDEN-AP to CCPM was calculated on the basis of Cys-BIDEN-AP consumed (total Cys-BIDEN-AP minus remaining Cys-BIDEN-AP). The size of CCPM-BIDEN-AP was determined by transmission electron microscopy (TEM). […]
# A2780cp20-Luc tumors = assay: Orthotopic A2780cp20-Luc ovarian cancer model; assay type: in vivo, mouse
# Description: Female nude mice were intraperitoneally (i.p.) inoculated with […] tumor cells. […] Tumor growth was monitored by bioluminescence imaging (IVIS). […] CTL, untreated control.
# Orthotopic ovarian cancer models. […] For all therapeutic experiments, groups of the mice (n=8-10) were inoculated intraperitoneally with A2780cp20-Luc cells. […] Untreated mice were used as a control.
# Immunoblotting, immunoprecipitation, and co-immunoprecipitation. For immunoblotting, lysates from cultured cells were prepared using modified radioimmunoprecipitation assay (RIPA) buffer (50 mM Tris-HCl [pH 7.4], 150 mM NaCl, 1% Triton, 0.5% deoxycholate) plus 25 μg/mL leupeptin, 10 μg/mL aprotinin, 2 mM EDTA, and 1 mM sodium orthovanadate. To prepare lysates of snap-frozen tissue from mice, approximately 30-mm^3 cuts of tissue were disrupted with a tissue homogenizer and subjected to centrifugation at 13,000 rpm for 30 min in modified RIPA buffer. The protein concentrations were determined by using a BCA Protein Assay Reagent kit (Pierce Biotechnology, Rockford, IL). Lysates were loaded and separated by 8% sodium dodecyl sulfate (SDS)-polyacrylamide gel electrophoresis (PAGE). Proteins were transferred to a nitrocellulose membrane by semidry electrophoresis (Bio-Rad Laboratories, Hercules, CA) overnight, blocked with 3% BSA for 1 h, and then incubated at 4° C. with primary antibody overnight. After washing with a mixture of tris-buffered saline and Tween 20 (TBST) solutions, the membranes were incubated with horseradish peroxidase (HRP)-conjugated horse anti-mouse IgG (1:2000, GE Healthcare, Amersham Place, UK) for 2 h. HRP was visualized by an enhanced chemoluminescence detection kit (Pierce). […] Densitometry was performed using ImageJ software. For immunoprecipitation and co-immunoprecipitation, cells were subjected to lysis in non-denaturing NP40 cell lysis buffer (Cell Signaling Technology, Boston, MA). The extracts were incubated with A/G-conjugated antibody at 4° C. for 2 h, and for immunoprecipitation the beads were washed twice with RIPA buffer, once with 0.5 m LiCl in 0.1 m Tris (pH 8.0), and once with PBS. Reactions were boiled in sample buffer, and proteins were then subjected to 10% SDS-PAGE and immunoblotting.
# Immunofluorescence analysis of CD31 was performed on 5-μm-thick fresh-frozen tissue samples. After deblocking with acetone, acetone-chloroform (1:1), and acetone for 5 min, non-specific binding was blocked with 4% fish gelatin (Biotium Inc, Hayward, CA) in PBS for 30 min.
# Immunohistochemistry (IHC) analysis.
substance,measurement,setting,value
CCPM-BIDEN-AP: nano-conjugate of Cys-BIDEN-AP on core-crosslinked polymeric micelles via maleimide (GMBS) (CTNYLFSPNGPIARAW; D-residues),sensitization of Bev-resistant cells to Bev treatment,Bev-resistant RF24 cells,re-sensitized these cells to Bev treatment
same,mean diameter (TEM),[1],24±3 nm
same,bioluminescence signal intensity,"A2780cp20-Luc tumors; day 28, 13 mg/kg/injection i.p., 10 doses",significantly reduced the bioluminescence signal intensity
same,"metastatic nodules, comparison of the two agents",A2780cp20-Luc tumors; day 31,reduced metastatic nodules to a greater extent than BIDEN-AP
same,"tumor growth in the peritoneum (tumor weight, number of metastatic nodules)","A2780cp20-Luc tumors; day 31, 13 mg/kg/injection i.p., 10 doses",significantly reduced tumor growth
same,apoptotic cell death in CD31 endothelial vasculature (TUNEL),A2780cp20-Luc tumors; excised tumors,induced apoptotic cell death
same,tumor cell proliferation (Ki67-positive cells),A2780cp20-Luc tumors; excised tumors,significantly reduced tumor cell proliferation
same,microvessel density (MVD),"A2780cp20-Luc tumors; excised tumors, CD31",decreased microvessel density
same,EphB4 and Crk1 phosphorylation in vivo,A2780cp20-Luc tumors; orthotopic A2780cp20 tumors,induce EphB4 and Crk1 phosphorylation
